Source: US20200077655A1, “Use of an Acyclic Picolinamide Compound as a Fungicide for Control of Phytopathogenic Fungi in Orchard, Vineyard and Plantation Crops” (Dow AgroSciences LLC, priority 2017, published 2020)

Tests used:
Type in all cases: in vivo
[1] = test system: Alternaria mali (ALTEMA); test: Field assessment of leaf spot of apple, protectant and curative trials
Procedure: Assessment of compound I on leaf spot of apple (ALTEMA), in both protectant and curative fashion, was performed in two separate field trials. For the protectant trial, a fungicidal treatment containing a 10% SC formulation of Compound I, either alone or with an adjuvant (Agnique BP420, 50% w/w at 0.3% v/v; or ETHOMEEN T18H, 50% w/w at 0.2% v/v), was sprayed on the plant canopy of apple trees (Hongxing variety) six times during the growing season of apples with each application coming at 15 day intervals. Formulations of Compound I, with or without adjuvants, were applied at rates of 100, 125 and 150 grams of active ingredient per hectare (g ai/ha) and were applied at water volume of 4500 L/ha. The experimental plots were inoculated three times with the leaf spot pathogen, the first inoculation performed at 2 days after the first application (Application A, 2DAAA), with the following applications at 2DAAC and 2DAAD. The treatment was part of an experimental trial designed as a randomized complete block with three replications and a plot size of 3 trees.
For the curative trial, a fungicidal treatment containing a 10% SC formulation of Compound I, either alone or with an adjuvant (Agnique BP420, 50% w/w at 0.3% v/v; or ETHOMEEN T18H, 50% w/w at 0.2% v/v), was sprayed on the plant canopy of apple trees (Hongxing variety) six times during the growing season of apples with each application coming at 15 day intervals. Formulations of Compound I, with or without adjuvants, were applied at rates of 100, 125 and 150 grams of active ingredient per hectare (g ai/ha) and were applied at water volume of 4500 L/ha. The experimental plots were inoculated three times with the leaf spot pathogen, the first inoculation performed at 5 days before the first application. The second inoculation was at 5 days before the third application and the third inoculation coming at 5 days before the fourth application. The treatment was part of an experimental trial designed as a randomized complete block with three replications and a plot size of 3 trees.
Disease incidence was assessed as percentage of diseased foliage per plant. Apple leaf spot infection was assessed six times, with the last assessment coming at 90 days after the first application. Area under the disease progress curve (AUDPC) was calculated for each plot using the sets of recorded visual infection data. Relative AUDPC (% control based on AUDPC) was calculated as percent of the nontreated control.

[2] = test system: Podosphaera leucotricha (PODOLE); test: Field assessment of apple powdery mildew; conditions: apples, 5% EC + ETHOMEEN T18H
Procedure: Assessment of compound I of PODOLE on apples was performed in two separate field trials. For the first trial, a fungicidal treatment containing a 5% EC formulation of compound I plus an adjuvant (ETHOMEEN T18H, 50% w/w at 1.0% v/v), was sprayed on the plant canopy of apples (MABSD, Imperatore Dallago variety) seven times during the growing season, the first application at BBCH 61 of plant growth stage, under natural infection of powdery mildew under open field conditions. The following six applications were applied in approximately 10 day intervals. Formulations of compound I were applied at rates of 100, 150, and 200 grams of active ingredient per hectare (g ai/ha). The treatment was part of an experimental trial designed as a randomized complete block with four replications and a plot of approximately 4.2×7.5 m. Formulations of compound I were applied at water volume of 800 L/ha, using a backpack plot sprayer (TRACKSP, Andreoli Engineering) and pressurized at 450 kPa.
For the second trial, a fungicidal treatment containing a 5% EC formulation of compound I plus an adjuvant (ETHOMEEN T18H, 50% w/w at 1.0% v/v), was sprayed on the plant canopy of apples (MABSD, Imperatore Dallago variety) seven times during the growing season, the first application at BBCH 61 of plant growth stage, under natural infection of powdery mildew under open field conditions. The following six applications were applied in approximately 10 day intervals. Formulations of compound I were applied at rates of 100, 150, and 200 grams of active ingredient per hectare (g ai/ha). The treatment was part of an experimental trial designed as a randomized complete block with four replications and a plot of approximately 4.2×7.5 m. Formulations of compound I were applied at water volume of 800 L/ha, using a self-propelled multi-plot track sprayer (TRACKSP, Andreoli Engineering) and pressurized at 450 kPa.
Disease severity in both trials was assessed as the percentage of leaf incidence and leaf infection on a random selection of 100 leaves. In the first trial, powdery mildew infection was assessed three times, 3 days after application D (3DAAD), 7DAAF, and SDAAG. In the second trial, powdery mildew infection was assessed four times, 6DAAB, 2DAAD, 7DAAF and SDAAG. Area under the disease progress curve (AUDPC) was calculated for each plot using the sets of recorded visual infection data. Relative AUDPC (% control based on AUDPC) was calculated as percent of the nontreated control.

[3] = test system: Podosphaera clandestina (PODOCL); test: Field assessment of powdery mildew in cherry; conditions: cherry leaves, 14 DAA5
Source text: A fungicidal treatment containing Compound I, applied in an SC formulation (MSO built-in) and tank mixed with an adjuvant (Agnique BP-420, 50% w/w at 0.2% v/v or Adsee C80W 80%), was sprayed on cherry trees (PRNAV, Sentennial variety) at growth stage (mid petal fall, flowers fading, petals falling; BBCH 67-85) at rates of 60, 120, 150, and 180 g ai/ha. The experimental plots were run with natural infestation. The treatment was part of an experimental trial designed as a randomized complete block (RCB) with four replications and a plot of approximately 4×6 m. Compound I was applied at water volume of 1000 L/ha, using an Airblast sprayer.
Disease severity (percentage of visual diseased foliage (leaf) on whole plot) and disease incidence were assessed 14 days after application 5 (14 DAA5). The disease infection was recorded. Disease was evaluated as percent of leaves with disease (incidence), percent diseased leaf area (severity, a disease index calculated (percent (%) incidence×percent (%) severity) and then percent (%) control was calculated using Abbotts from the disease index values. Results are given in Table 12.

[4] = 100 g ai/ha, adjuvant ETHOMEEN, 10% SC
[5] = 100 g ai/ha, adjuvant None, 10% SC
[6] = 125 g ai/ha, adjuvant Agnique BP420, 10% SC
[7] = 125 g ai/ha, adjuvant ETHOMEEN, 10% SC
[8] = 150 g ai/ha, adjuvant ETHOMEEN, 10% SC

SMILES: COc1ccnc(C(=O)N[C@@H](C)C(=O)O[C@@H](C)C(c2ccc(F)cc2)c2ccc(F)cc2)c1OC(C)=O [Compound I, (S)-1,1-bis(4-fluorophenyl)propan-2-yl (3-acetoxy-4-methoxypicolinoyl)-L-alaninate]
- % Control Curative (AUDPC, leaf infection) [1, 4]: A (76-100)
- % Control Protectant (AUDPC, leaf infection) [1, 4]: A (76-100)
- % Control Curative (AUDPC, leaf infection) [1, 5]: B (51-75)
- % Control Protectant (AUDPC, leaf infection) [1, 5]: B (51-75)
- % Control Curative (AUDPC, leaf infection) [1, 6]: A (76-100)
- % Control Protectant (AUDPC, leaf infection) [1, 6]: A (76-100)
- % Control Curative (AUDPC, leaf infection) [1, 7]: A (76-100)
- % Control Protectant (AUDPC, leaf infection) [1, 7]: A (76-100)
- % Control Curative (AUDPC, leaf infection) [1, 8]: A (76-100)
- % Control Protectant (AUDPC, leaf infection) [1, 8]: A (76-100)
- Percent control (AUDPC) from leaf infection assessments ([2]; Trial 1, 100 g ai/ha): B (51-75)
- Percent control (AUDPC) from leaf infection assessments ([2]; Trial 1, 150 g ai/ha): A (76-100)
- Percent control (AUDPC) from leaf infection assessments ([2]; Trial 1, 200 g ai/ha): A (76-100)
- Percent control (AUDPC) from leaf infection assessments ([2]; Trial 2, 100 g ai/ha): A (76-100)
- Percent control (AUDPC) from leaf infection assessments ([2]; Trial 2, 150 g ai/ha): A (76-100)
- Percent control (AUDPC) from leaf infection assessments ([2]; Trial 2, 200 g ai/ha): A (76-100)
- Calc Percent Control of PODOCL ([3]; 60 g ai/ha, Agnique BP420, 240 mL/ha): 64.6%
- Calc Percent Control of PODOCL ([3]; 60 g ai/ha, MSO, 120 g ai/ha): 63.3%
- Calc Percent Control of PODOCL ([3]; 120 g ai/ha, Adsee C80W 80%, 300 g ai/ha): 44.4%
- Calc Percent Control of PODOCL ([3]; 120 g ai/ha, Agnique BP420, 480 mL/ha): 46.9%
- Calc Percent Control of PODOCL ([3]; 120 g ai/ha, MSO, 240 g ai/ha): 37.9%
- Calc Percent Control of PODOCL ([3]; 150 g ai/ha, Agnique BP420, 600 mL/ha): 44.4%
- Calc Percent Control of PODOCL ([3]; 150 g ai/ha, MSO, 300 g ai/ha): 91.7%
- Calc Percent Control of PODOCL ([3]; 180 g ai/ha, Agnique BP420, 720 mL/ha): 48.7%
- Calc Percent Control of PODOCL ([3]; 180 g ai/ha, MSO, 360 g ai/ha): 89.1%
